Consider 28 compounds from patent US20080193411A1, “Anti-viral Compounds” (Genelabs Technologies, Inc., priority 2006, published 2008).

Molecules are shown by their SMILES.

Broadly, the inhibition is the percentage by which the read-out fell short of the control. Lower therefore signals a response near the control.

The test deals with HCV replication. Briefly: HCV replicon assay (luciferase), ET (Huh-lucubineo-ET) cell line. Type of test: cell-based. The following applies: Hepatitis C virus; tested at 10 μM; ET (Huh-lucubineo-ET) replicon cells; luciferase activity 48-72 hours; relative to no compound control. As to the method:
A cell line, ET (Huh-lucubineo-ET) was used for screening of compounds of the present invention for inhibiting HCV replication. The ET cell line was stably transfected with RNA transcripts harboring a I389luc-ubi-neo/NS3-3′/ET; replicon with firefly luciferase-ubiquitin-neomycin phosphotransferase fusion protein and EMCV-IRES driven NS3-5B polyprotein containing the cell culture adaptive mutations (E1202G; T1280I; K1846T) (Krieger at al, 2001 and unpublished). The ET cells were grown in DMEM (Dulbeco's Modified Eagle's Medium), supplemented with 10% fetal calf serum, 2 mM Glutamine, Penicillin (100 IU/mL)/Streptomycin (100 μg/mL), 1× nonessential amino acids, and 250 μg/mL G418 (“Geneticin”). They were all available through Life Technologies (Bethesda, Md.). The cells were plated at 0.5-1.0×10^4 cells/well in the 96 well plates and incubated for 24 hrs before adding testing compounds. Then the compounds were added to the cells to achieve a final concentration of 0.1 nM to 50 μM and a final DMSO concentration of 0.5%. Luciferase activity were measured 48-72 hours later by adding a lysis buffer and the substrate (Catalog number Glo-lysis buffer E2661 and Bright-Glo luciferase system E2620 Promega, Madison, Wis.). Cells should not be too confluent during the assay. Percent inhibition of replication was plotted relative to no compound control. Under the same condition, cytotoxicity of the compounds was determined using cell proliferation reagent, WST-1 (Roche, Germany). The compounds showing antiviral activities, but no significant cytotoxicities were chosen to determine EC50 and TC50. For these determinations, a 10 point 2-fold serial dilution for each compound was used, which spans a concentration range of 1000 fold. EC50 and similarly TC50 values were calculated by fitting % inhibition at each concentration to the following equation:
% inhibition=100%/[(IC50/[I])^b+1]
where b is Hill's coefficient.
In some preferred embodiments compounds of Formula I will have a % inhibition of at least 20% when tested at 10 μM. In other embodiments the compounds of Formula I will have a % inhibition of at least 50% when tested at 10 μM.
(In general: A replicon is a self-replicating genome or part of one, used to study replication in cells.)
With `O=C(Cc1ccc(-c2ccc([C@@H]3CCCN3C(=O)OCc3ccccc3)cc2)cc1)NC1CC1` (stereo in doubt) [Compound 4002, 2-(4′-Cyclopropylcarbamoylmethyl-biphenyl-4-yl)-pyrrolidine-1-carboxylic acid benzyl ester], at 10 µM the inhibition was 33.3%.
The figure for `O=C(Cc1cccc(-c2ccc([C@@H]3CCCN3C(=O)OCc3ccccc3)cc2)c1)NC1CC1` (stereo in doubt) [Compound 4043, 2-(3′-Cyclopropylcarbamoylmethyl-biphenyl-4-yl)-pyrrolidine-1-carboxylic acid benzyl ester] is 40%; for `O=C(NC1CC1)c1ccc(-c2ccc([C@@H]3CCCN3C(=O)OCc3ccccc3)cc2)cc1` (stereo in doubt) [Compound 4044, 2-(4′-Cyclopropylcarbamoyl-biphenyl-4-yl)-pyrrolidine-1-carboxylic acid benzyl ester] it is 53.1%; for `O=C(NC1CC1)c1cccc(-c2ccc3nc([C@@H]4CCCN4C(=O)OCc4ccccc4)[nH]c3c2)c1` [Compound 4001, (S)-2-[6-(3-Cyclopropylcarbamoyl-phenyl)-1H-benzoimidazol-2-yl]-pyrrolidine-1-carboxylic acid benzyl ester] it is 94.5%.
Next, `O=C(Cc1cccc(-c2ccc3nc([C@@H]4CCCN4C(=O)OCc4ccccc4)[nH]c3c2)c1)NC1CC1` [Compound 4003, (S)-2-[6-(3-Cyclopropylcarbamoylmethyl-phenyl)-1H-benzoimidazol-2-yl]-pyrrolidine-1-carboxylic acid benzyl ester]: 97%.
Next, `O=C(Nc1ccc(-c2cccc(C#C[C@@H]3CCCN3C(=O)OCc3ccccc3)c2)cc1)C1CC1` [Compound 4004, (S)-2-[4′-(Cyclopropanecarbonyl-amino)-biphenyl-3-ylethynyl]-pyrrolidine-1-carboxylic acid benzyl ester]: 81.8%; `O=C(OCc1ccccc1)N1CCC[C@H]1c1nc2ccc(-c3ccc4[nH]ccc4c3)cc2s1` [Compound 4005, (S)-2-[6-(1H-Indol-5-yl)-benzothiazol-2-yl]-pyrrolidine-1-carboxylic acid benzyl ester]: 1.7%; `O=C(OCc1ccccc1)N1CCC[C@H]1c1nc2ccc(-c3ccccc3)cc2[nH]1` [Compound 4007, (S)-2-(6-Phenyl-1H-benzoimidazol-2-yl)-pyrrolidine-1-carboxylic acid benzyl ester]: 4.4%.
Take `Nc1ccc(-c2ccc3nc([C@@H]4CCCN4C(=O)OCc4ccccc4)[nH]c3c2)cc1` [Compound 4008, (S)-2-[6-(4-Amino-phenyl)-1H-benzoimidazol-2-yl]-pyrrolidine-1-carboxylic acid benzyl ester]: at 10 µM the inhibition was 13.6%.
The figure for `O=C(OCc1ccccc1)N1CCC[C@H]1c1nc2ccc(-c3ccc4ccccc4c3)cc2[nH]1` [Compound 4011, (S)-2-(6-Naphthalen-2-yl-1H-benzoimidazol-2-yl)-pyrrolidine-1-carboxylic acid benzyl ester] is 87%; for `O=C(OCc1ccccc1)N1CCC[C@H]1c1nc2ccc(-c3cccc4cc[nH]c34)cc2[nH]1` [Compound 4014, (S)-2-[6-(1H-Indol-7-yl)-1H-benzoimidazol-2-yl]-pyrrolidine-1-carboxylic acid benzyl ester] it is 12.7%.
The figure for `COc1ccc(-c2ccc3nc([C@@H]4CCCN4C(=O)OCc4ccccc4)[nH]c3c2)c(OC)c1` [Compound 4017, (S)-2-[6-(2,4-Dimethoxy-phenyl)-1H-benzoimidazol-2-yl]-pyrrolidine-1-carboxylic acid benzyl ester] is 42.4%; for `O=C(NC1CC1)c1ccc(-c2ccc3nc([C@@H]4CCCN4C(=O)OCc4ccccc4)oc3c2)cc1` [Compound 4019, (S)-2-[6-(4-Cyclopropylcarbamoyl-phenyl)-benzooxazol-2-yl]-pyrrolidine-1-carboxylic acid benzyl ester] it is 50.5%.
Next, `O=C(NC1CC1)c1ccc(-c2ccc3nc([C@@H]4CCCN4C(=O)OCc4ccccc4)[nH]c3c2)cc1` [Compound 4020, (S)-2-[6-(4-Cyclopropylcarbamoyl-phenyl)-1H-benzoimidazol-2-yl]-pyrrolidine-1-carboxylic acid benzyl ester]: 96.1%.
Compound `O=C(Cc1ccc(-c2ccc3nc([C@@H]4CCCN4C(=O)OCc4ccccc4)[nH]c3c2)cc1)NC1CC1` [Compound 4021, (S)-2-[6-(4-Cyclopropylcarbamoylmethyl-phenyl)-1H-benzoimidazol-2-yl]-pyrrolidine-1-carboxylic acid benzyl ester] showed an inhibition at 10 µM of 64.5%.
The figure for `O=C(NC1CC1)c1ccc(-c2ccc3nc([C@@H]4CCCN4C(=O)OCc4ccccc4)sc3c2)cc1` [Compound 4022, 2-[6-(4-Cyclopropylcarbamoyl-phenyl)-benzothiazol-2-yl]-pyrrolidine-1-carboxylic acid benzylester] is 14.9%; for `O=C(Cc1ccc(-c2cccc(C#C[C@@H]3CCCN3C(=O)OCc3ccccc3)c2)cc1)NC1CC1` [Compound 4024, 2-(4′-Cyclopropylcarbamoyl-methyl-biphenyl-3-ylethynyl)-pyrrolidine-1-carboxylic acid benzylester] it is 45.9%; for `O=C(OCc1ccccc1)N1CCC[C@H]1c1nc2ccc(-c3cccs3)cc2[nH]1` [Compound 4029, (S)-2-(6-Thiophen-2-yl-1H-benzoimidazol-2-yl)-pyrrolidine-1-carboxylic acid benzyl ester] it is 78.1%.
Next, `O=C(OCc1ccccc1)N1CCC[C@H]1c1nc2ccc(-c3ccco3)cc2[nH]1` [Compound 4030, (S)-2-(6-Furan-2-yl-1H-benzoimidazol-2-yl)-pyrrolidine-1-carboxylic acid benzyl ester]: 66.8%; `O=C(OCc1ccccc1)N1CCC[C@H]1c1nc2ccc(-c3ccc4c(c3)OCO4)cc2[nH]1` [Compound 4032, (S)-2-(6-Benzo[1,3]dioxol-5-yl-1H-benzoimidazol-2-yl)-pyrrolidine-1-carboxylic acid benzyl ester]: 25.8%.
Compound `O=C(OCc1ccccc1)N1CCC[C@H]1c1nc2ccc(-c3cc([N+](=O)[O-])c4[nH]ccc4c3)cc2[nH]1` [Compound 4033, (S)-2-[6-(7-Nitro-1H-indol-5-yl)-1H-benzoimidazol-2-yl]-pyrrolidine-1-carboxylic acid benzyl ester] showed an inhibition at 10 µM of 97.5%.
The figure for `NC(=O)Nc1ccc(-c2ccc3nc([C@@H]4CCCN4C(=O)OCc4ccccc4)[nH]c3c2)cc1` [Compound 4034, (S)-2-[6-(4-Ureido-phenyl)-1H-benzoimidazol-2-yl]-pyrrolidine-1-carboxylic acid benzyl ester] is 24.1%.
The figure for `O=C(OCc1ccccc1)N1CCC[C@H]1c1nc2ccc(-c3ccc4[nH]ccc4c3)cc2[nH]1` [Compound 4035, (S)-2-[6-(1H-Indol-5-yl)-1H-benzoimidazol-2-yl]-pyrrolidine-1-carboxylic acid benzyl ester] is 99.9%.
The figure for `O=C(Nc1cccc(-c2ccc3nc([C@@H]4CCCN4C(=O)OCc4ccccc4)[nH]c3c2)c1)C1CC1` [Compound 4037, (S)-2-{6-[3-(Cyclopropanecarbonyl-amino)-phenyl]-1H-benzoimidazol-2-yl}-pyrrolidine-1-carboxylic acid benzyl ester] is 97.6%.
The compound `O=C(OCc1ccccc1)N1CCC[C@H]1c1nc2ccc(-c3ccc4[nH]ccc4c3)cc2o1` [Compound 4039, (S)-2-[6-(1H-Indol-5-yl)-benzooxazol-2-yl]-pyrrolidine-1-carboxylic acid benzyl ester] registered an inhibition at 10 µM of 49.6%.
`O=C(NCc1ccc(-c2cccc(C#C[C@@H]3CCCN3C(=O)OCc3ccccc3)c2)cc1)C1CC1` [Compound 4041, (S)-2-{4′-[(Cyclopropanecarbonyl-amino)-methyl]-biphenyl-3-ylethynyl}-pyrrolidine-1-carboxylic acid benzyl ester] had an inhibition at 10 µM of 45.8%.
Next, `CC(=O)c1cccc(-c2ccc3nc([C@@H]4CCCN4C(=O)OCc4ccccc4)[nH]c3c2)c1` [Compound 4045, (S)-2-[6-(3-Acetyl-phenyl)-1H-benzoimidazol-2-yl]-pyrrolidine-1-carboxylic acid benzyl ester]: 99.8%; `O=C(OCc1ccccc1)N1CCC[C@H]1c1nc2ccc(-c3ccc4[nH]c5ccccc5c4c3)cc2[nH]1` [Compound 4047, (S)-2-[6-(9H-Carbazol-3-yl)-1H-benzoimidazol-2-yl]-pyrrolidine-1-carboxylic acid benzyl ester]: 98.2%.
